Test results from patent publication US6660870B1, “2-acylaminobenzimidazole derivatives for treating glaucoma” (Alcon, Inc., priority 2000, dated 2003).

What was measured:
5-HT2 receptor = target: T1, 5-HT2 receptor (Rattus norvegicus, UniProt P14842); assay: 5-HT2 Functional Assay: Phosphoinositide (PI) Turnover Assay; assay type: cell-based; details: for EC50: [3H]inositol phosphate production in A7r5 rat vascular smooth muscle cells
T1 construct: A7r5 rat vascular smooth muscle cells; endogenous in cells; host or cells: A7r5 rat vascular smooth muscle cells
T1 sequence (P14842 whole entry): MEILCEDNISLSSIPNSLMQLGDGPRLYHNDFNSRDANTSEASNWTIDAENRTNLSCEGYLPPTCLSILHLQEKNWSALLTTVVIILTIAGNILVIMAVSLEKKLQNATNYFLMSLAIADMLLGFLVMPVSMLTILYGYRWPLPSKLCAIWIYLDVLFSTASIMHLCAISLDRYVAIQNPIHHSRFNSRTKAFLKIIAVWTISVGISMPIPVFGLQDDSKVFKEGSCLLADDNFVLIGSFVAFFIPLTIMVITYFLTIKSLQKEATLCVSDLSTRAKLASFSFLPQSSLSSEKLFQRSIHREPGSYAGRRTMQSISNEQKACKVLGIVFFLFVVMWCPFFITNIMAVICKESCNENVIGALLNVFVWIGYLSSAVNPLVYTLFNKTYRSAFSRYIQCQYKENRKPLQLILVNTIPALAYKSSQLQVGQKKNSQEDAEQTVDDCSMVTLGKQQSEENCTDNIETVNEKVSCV
Description: 5-HT2 Functional Assay: Phosphoinositide (PI) Turnover Assay
The relative agonist activity of serotonergic compounds at the 5-HT2 receptor can be determined in vitro using the ability of the compounds to stimulate the production of [^3H]inositol phosphates in [^3H]myo-inositol-labeled A7r5 rat vascular smooth muscle cells by their ability to activate the enzyme phospholipase C. These cells are grown in culture plates, maintained in a humidified atmosphere of 5% CO2 and 95% air and fed semi-weekly with Dulbecco's modified Eagle medium (DMEM) containing 4.5 g/l glucose and supplemented with 2 mM glutamine, 10 μg/ml gentamicin, and 10% fetal bovine serum. For the purpose of conducting the phosphoinositide (PI) turnover experiments, the A7r5 cells are cultured in 24-well plates as previously [J. Pharmacol. Expt. Ther., 286, 411 (1998)]. Confluent cells are exposed for 24-30 hrs to 1.5 μCi [^3H]-myo-inositol (18.3 Ci/mmol) in 0.5 ml of serum-free medium. Cells are then rinsed once with DMEM/F-12 containing 10 mM LiCl prior to incubation with the test agent (or solvent as the control) in 1.0 ml of the same medium for 1 hr at 37° C., after which the medium is aspirated and 1 ml of cold 0.1 M formic acid added to stop the reaction. The chromatographic separation of [^3H]-inositol phosphates ([^3H]-IPs) on an AG-1-X8 column is performed as previously described [J. Pharmacol. Expt. […] The eluate (4 ml) is collected, mixed with 15 ml scintillation fluid, and the total [^3H]-IPs determined by scintillation counting on a beta-counter. Concentration-response data are analyzed by the sigmoidal fit function of the Origin Scientific Graphics software (Microcal Software, Northampton, Mass.) to determine agonist potency (EC50 value) and efficacy (Emax). Serotonin (5-HT) is used as a positive control (standard) agonist compound and the efficacy of test compounds is compared to that of 5-HT (set at 100%).

brain 5-HT2 receptors = brain 5-HT2 receptors (Rattus norvegicus, UniProt P14842); assay: 5-HT2 Receptor Binding Assay ([125I]DOI competition); details: competition for [125I]DOI binding, post mortem rat or human cerebral cortex homogenates
Chain of brain 5-HT2 receptors (P14842 whole entry): as above
Description: 5-HT2 Receptor Binding Assay
Aliquots of post mortem rat or human cerebral cortex homogenates (400 μl) dispersed in 50 mM TrisHCl buffer (pH 7.4) are incubated with [^125I]DOI (80 pM final) in the absence or presence of methiothepin (10 μM final) to define total and non-specific binding, respectively, in a total volume of 0.5 ml. The assay mixture is incubated for 1 hour at 23° C. in polypropylene tubes and the assays terminated by rapid vacuum filtration over Whatman GF/B glass fiber filters previously soaked in 0.3% polyethyleneimine using ice-cold buffer. Test compounds (at different concentrations) are substituted for methiothepin. Filter-bound radioactivity is determined by scintillation spectrometry on a beta counter. The data are analyzed using a non-linear. iterative curve-fitting computer program [Trends Pharmacol. Sci., 16, 413 (1995)] to determine the compound affinity parameter. The concentration of the compound needed to inhibit the [^125I]DOI binding by 50% of the maximum is termed the IC50 […].

Row | SMILES | EC50 (5-HT2 receptor) | IC50 (brain 5-HT2 receptors) | Emax (5-HT2 receptor; A7R5, read-out: Efficacy (Emax, %))
1 | COc1cc(C[C@@H](C)N)c(OC)cc1I [(R)-DOI] | 277 nM | 0.46 nM | 
2 | Cc1ccc(C(=O)Nc2nc3ccccc3n2CCN(C)C)cc1 [Example 1, 1-(N,N-Dimethylaminoethyl)-2-(4-methylbenzamido)benzimidazole] | 404 nM |  | 35%
